We go through nine molecules from PMC6175296 (Clinical Pharmacology and Therapeutics, 2017).

Data set [1] is classed as in vivo, humans.
For the next data set, the system named is OATP1B1. As to conditions: read-out: OATP1B1 Ki; “Clopidogrel 25” model; published value; cited from earlier work.
The conditions of data set [2]: cited from earlier work.
For data set [3] the following is noted: cited from earlier work. This is another data set of the same source.
Data set [4] concerns CYP2C8. As to conditions: read-out: CYP2C8 Ki; microsomal protein concentration 0.25 mg/mL; cited from earlier work.
The conditions of data set [5]: cited from earlier work. The source holds these as a separate data set.
For data set [6] the following is noted: for AUC(0-inf): AUC0–∞; for tmax: median (range).
Data set [7] deals with T1, CYP2C8 (Homo sapiens, UniProt P10632).
T1 sequence (P10632 1-490): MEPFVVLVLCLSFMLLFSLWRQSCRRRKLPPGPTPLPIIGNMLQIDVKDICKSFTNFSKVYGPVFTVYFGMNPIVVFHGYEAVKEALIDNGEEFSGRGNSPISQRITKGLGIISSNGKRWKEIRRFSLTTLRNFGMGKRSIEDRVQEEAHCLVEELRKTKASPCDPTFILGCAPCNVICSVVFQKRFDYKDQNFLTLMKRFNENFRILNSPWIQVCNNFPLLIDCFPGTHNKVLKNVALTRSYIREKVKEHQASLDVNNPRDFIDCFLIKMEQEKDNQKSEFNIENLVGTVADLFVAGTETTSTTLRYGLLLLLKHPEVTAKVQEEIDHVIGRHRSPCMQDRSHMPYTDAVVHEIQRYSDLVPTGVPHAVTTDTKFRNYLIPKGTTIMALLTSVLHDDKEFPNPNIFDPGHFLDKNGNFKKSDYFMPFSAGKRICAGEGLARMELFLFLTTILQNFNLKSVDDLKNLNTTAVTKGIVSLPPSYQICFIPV
Kind of data set: In vivo CYP2C8 inhibition judged from montelukast pharmacokinetics. As to conditions: montelukast as CYP2C8 probe substrate.

Where [8] appears, read: after 300 mg clopidogrel oral, day 1, median (range).
Setting [9] is: both, human, plasma, po, 300 mg.
[10] abbreviates: after 60 mg prasugrel oral, day 1, median (range).

Entries after “also recorded” stand apart in the source; their conditions may differ. Where two headings read alike, the source gives them in different places.

On to `O=C(O)[C@H]1O[C@@H](OC(=O)[C@H](c2ccccc2Cl)N2CCc3sccc3C2)[C@H](O)[C@@H](O)[C@@H]1O` [Clopidogrel acyl‐β‐D‐glucuronide], for which, in data set [1] (setting [8]), the AUC0-13h is recorded as 16,200 (7,030–34,200) ng·h/mL, the Cmax is 3,290 (1,470–9,680) ng/mL, the tmax was 1.5 (0.92–3.0) h and the t½ is on record as 4.6 (3.9–6.6) h. Further, the Ki with OATP1B1 is 5.45 µM.
In the case of `O=C(O)[C@H](c1ccccc1Cl)N1CCc2sccc2C1` [Clopidogrel carboxylic acid], in data set [1] (setting [8]), the AUC0-13h is recorded as 38,500 (22,000–53,400) ng·h/mL, the Cmax is 11,500 (7,410–19,700) ng/mL, the tmax is recorded as 0.92 (0.92–1.5) h and the t½ is 7.3 (5.8–9.2) h.
As for `CC(C)(O)c1ccccc1CC[C@@H](SCC1(CC(=O)O)CC1)c1cccc(/C=C/c2ccc3ccc(Cl)cc3n2)c1` [Montelukast], the “AUC increase by clarithromycin” value in data set [2] was 2.4 fold. In data set [2], the “CYP2C8 inhibition in humans” value is “not a significant inhibitor of CYP2C8”. The “decrease in exposure by fluconazole” value in data set [2] is 30–40%. In data set [3], the “bound to plasma proteins” value is given as “about 99.8%”. The inhibition constant (Ki) in the data set on CYP2C8 [4] was […]. In addition, the oral bioavailability in data set [5] was 60–70%. The AUC(0-inf) was 3.02 µg·h/mL in data set [6] (both, human, plasma, oral, 10 mg, placebo phase, geometric mean (geometric CV)); 5.99 µg·h/mL in data set [6] (both, human, plasma, oral, clopidogrel phase, geometric mean (geometric CV)); 2.8 µg·h/mL in data set [6] (both, human, plasma, oral, prasugrel phase, geometric mean (geometric CV)). Further, the tmax is 3.5 h in data set [6] (both, human, plasma, oral, 10 mg, placebo phase); 4.5 h in data set [6] (both, human, plasma, oral, clopidogrel phase); 3 h in data set [6] (both, human, plasma, oral, prasugrel phase). The molecule also had a half-life in data set [6] (both, human, plasma, oral, t½, clopidogrel phase, geometric mean (geometric CV)) of 8.2 h. In addition, the t½ in data set [6] (placebo phase, geometric mean (geometric CV)) is given as 4.51 (18) h; in data set [6] (prasugrel phase, geometric mean (geometric CV)), 5.16 (20) h. Further, in data set [6] (prasugrel phase vs placebo), the “prolongation in t½” value was 15%. The “t½ prolongation by prasugrel” value in data set [6] (prasugrel phase vs placebo) came to 1.15 fold.
`CCc1ccc(CCOc2ccc(CC3SC(=O)NC3=O)cc2)nc1` (centres unmarked) [Pioglitazone]: the “AUC increase by gemfibrozil” value in data set [2] (previous studies) is “about 3 fold”. In data set [2] (previously reported), the “AUC increase by clopidogrel” value was 2.0–2.1 fold.
For the molecule `COC(=O)[C@H](c1ccccc1Cl)N1CCc2sccc2C1` [Clopidogrel], in data set [2] (pitavastatin and simvastatin as substrates), the “clinically relevant inhibition of CYP3A4 or OATP1B1” value is recorded as “not a clinically relevant inhibitor of CYP3A4 or OATP1B1”. In addition, in data set [1] (setting [9]), the exposure AUC(0-t) was found to be 0.0132 µg·h/mL, the Cmax came to 3.53 ng/mL, the half-life was 4.8 h and the tmax was found to be 1.5 h. Also, the “CYP2C8 inhibition in humans (conclusion)” value at CYP2C8 [7] was “at least a moderate inhibitor of CYP2C8; also recorded: weaker CYP2C8 inhibitor than gemfibrozil”.
As to `CC(=O)Oc1cc2c(s1)CCN(C(C(=O)C1CC1)c1ccccc1F)C2` (centres unmarked) [Prasugrel], on CYP2C8 [7], the “CYP2C8 inhibition in humans (conclusion)” value is recorded as “not a clinically relevant CYP2C8 inhibitor; also recorded: not a significant inhibitor of CYP2C8”.
For `O=C(O)/C=C1/CN(C(C(=O)C2CC2)c2ccccc2F)CCC1S` (centres unmarked) [Prasugrel active metabolite (R‐138727)], in data set [1] (setting [10]), the AUC0-13h is reported as 495 (249–1090) ng·h/mL, the Cmax is on record as 428 (210–865) ng/mL, the tmax is 0.92 (0.92–0.92) h and the t½ was 3.9 (3.2–5.5) h.
Take `COC(=O)[C@H](c1ccccc1Cl)N1CC[C@@H](S)/C(=C\C(=O)O)C1` [Clopidogrel active metabolite]: in data set [1] (setting [8]), the AUC0-13h was 32.0 (17.0–101) ng·h/mL, the Cmax is given as 23.4 (12.6–80.1) ng/mL, the tmax is 0.92 (0.92–1.5) h and the t½ is reported as 3.4 (0.84–4.8) h.
In the case of `O=C1C=C2CN(C(C(=O)C3CC3)c3ccccc3F)CCC2S1` (centres unmarked) [Prasugrel inactive metabolite (R‐95913)], in data set [1] (setting [10]), the AUC0-13h was 495 (247–1140) ng·h/mL, the Cmax is 240 (105–692) ng/mL, the tmax is 0.92 (0.92–1.5) h and the t½ is 7.1 (6.0–9.2) h.
